Where two headings read alike, the source gives them in different places. Marks after values point to notes of the source that are not given here.
Key:
[1] = system: PrP^Sc in dividing ScN2a-cl3 cells; assay: cells; type: cell-based, mouse; settings: for EC50: Mus musculus
[2] = in vivo; settings: female, FVB, mouse, po, 10 mg/kg, Cmax ± SD
[3] = in vitro; settings: mouse
[4] = system: dividing ScN2a-cl3 cells
[5] = system: PrP^Sc in stationary-phase ScN2a-cl3 cells; type: cell-based, mouse
[6] = system: PrP^Sc in dividing cells; settings: cited from earlier work
[7] = system: PrP^Sc in stationary-phase cells; settings: cited from earlier work
[8] = read-out: EC50 in dividing cells (text and footnote)

COc1ccc(C(=O)Nc2ccc(-c3csc(C)n3)cc2)cc1 [IND33145]
EC50 [1, 8]: < 1000 nM

COc1cc(CNCCO)cc(Br)c1OCc1ccccc1Cl [IND46380]
EC50 [1, 8]: > 1000 nM

COc1ccc2cc3c(N)c(C(=O)Nc4ccc(C(C)=O)cc4)sc3nc2c1 [IND52025]
EC50 [1, 8]: < 1000 nM

Dextran [reference compound]
EC50 ± SEM (antiprion activity by ELISA) [1]: 0.40 ± 0.08 (mg/L) | antiprion potency in dividing cells [1]: good potency

CN1CCN(c2ccc(Nc3ccnc4cc(Cl)ccc34)cc2)CC1 [IND45193]
Cmax ([2]; brain): 1610 ± 230 nM | Cmax ([2]; plasma): 130 ± 10 nM | EC50 [1, 8]: > 1000 nM

COc1cccc(Nc2nc(N)c3ccccc3n2)c1 [IND35916]
EC50 [1, 8]: > 1000 nM

COc1ccc(-c2cc(-c3ccc(OC)cc3O)[nH]n2)cc1 [IND25807]
EC50 [1, 8]: < 1000 nM

CC(NCCC(c1ccccc1)c1ccccc1)c1ccccc1 (stereo not shown) [Fendiline]
EC50 [3]: 4300 to 9600 nM

CCOc1ccc(/N=N/c2ccc(N)cc2N)cc1 [Ethoxazine]
CC50 [4]: > 10000 nM

CN1CCc2cccc3c2[C@H]1Cc1ccc(O)c(O)c1-3 [Apomorphine, reference compound]
EC50 ([1]; read-out: EC50 ± SEM (antiprion activity by ELISA)): > 10000 nM

Nc1c(/N=N/c2ccc(-c3ccc(/N=N/c4cc(S(=O)(=O)[O-])c5ccccc5c4N)cc3)cc2)cc(S(=O)(=O)[O-])c2ccccc12.[Na+].[Na+] [Congo Red, reference compound]
effect on cell viability [4]: no effects on cell viability | antiprion potency in dividing cells [1]: good potency | EC50 [1, 8]: ~400 nM

OCCNCc1cc(Br)ccc1OCc1ccc(Cl)cc1Cl [IND34452]
EC50 [1, 8]: > 1000 nM

CCOc1ccc(NC(=O)c2cc3ccccc3cc2O)cc1 [IND31751]
EC50 [1, 8]: < 1000 nM

c1cncc(-c2nc(-c3c[nH]c4ccccc34)cs2)c1 [IND24350]
EC50 [1, 8]: < 1000 nM

COc1ccc(CCNC(=O)c2sc3nc(-c4cccs4)ccc3c2N)cc1OC [IND42103]
antiprion potency in dividing cells [1]: inactive

COc1ccc2cc1Oc1ccc(cc1)C[C@H]1c3cc(c(OC)cc3CCN1C)Oc1c(OC)c(OC)cc3c1[C@H](C2)N(C)CC3 [Tetrandine]
CC50 [4]: 5000 to 6100 nM

CN(C)CCNc1nc(-c2ccc(Cl)cc2)nc2ccccc12 [IND34921]
EC50 [1, 8]: > 1000 nM

COc1ccc(-c2nc3cc(NC(=O)c4ccc(OCc5ccccc5)cc4)ccc3o2)cc1 [IND114202]
EC50 [1, 8]: < 1000 nM

Enoxaparin [reference compound]
LC50 ± SEM (cell viability by calcein) [4]: >10 (mg/L) | EC50 ± SEM (antiprion activity by ELISA) [1]: >10 (mg/L)

CC(=O)c1ccc(NC(=O)c2sc3nc4c(cc3c2N)CCCC4)cc1 [IND24609]
antiprion potency in dividing cells [1]: inactive

Cn1c(=N)n(CC(=O)c2ccc(Br)cc2)c2ccccc21 [IND44723]
EC50 [1, 8]: > 1000 nM

N#Cc1sc2nc(-c3ccc4c(c3)OCO4)ccc2c1N [IND52851]
Cmax ([2]; brain): 1020 ± 710 nM | Cmax ([2]; plasma): 410 ± 250 nM

Cc1ccc2[nH]c3c(c2c1)CCCC3NCCCN(C)C (stereo not shown) [IND23308]
Reduction (%) Stationary PrP^Sc [5]: 94 ^c % | percent reduction in PrP^Sc in the HTS [5]: 70% | effect on cell viability [4]: no effect on cell viability

Cn1c(=N)n(CC(=O)c2ccc(Cl)cc2)c2ccccc21 [IND26326]
EC50 [1, 8]: > 1000 nM

CCN(CC)CCCC(C)Nc1c2ccc(Cl)cc2nc2ccc(OC)cc12 (stereo not shown) [quinacrine]
activity in dividing cells [6]: rapidly cleared | activity in stationary-phase cells [7]: relatively ineffective

COc1ccccc1OCCNCC(O)COc1cccc2[nH]c3ccccc3c12 (stereo not shown) [Carvedilol]
CC50 [3]: 5000 to 6100 nM

COc1cc(N)c(-c2ccc3cc(OC)c(OC)cc3n2)cc1OC [IND44355]
EC50 [1, 8]: > 1000 nM

— PMC3984054 (Bioorganic & medicinal chemistry, 2013)
